The target in one experiment is T1, Full-length MALT1 enzyme (Homo sapiens, UniProt Q9UDY8).
T1 construct: Full-length MALT1 enzyme at 2 nM was assayed in 50 mM HEPES
T1 sequence (Q9UDY8 1-824): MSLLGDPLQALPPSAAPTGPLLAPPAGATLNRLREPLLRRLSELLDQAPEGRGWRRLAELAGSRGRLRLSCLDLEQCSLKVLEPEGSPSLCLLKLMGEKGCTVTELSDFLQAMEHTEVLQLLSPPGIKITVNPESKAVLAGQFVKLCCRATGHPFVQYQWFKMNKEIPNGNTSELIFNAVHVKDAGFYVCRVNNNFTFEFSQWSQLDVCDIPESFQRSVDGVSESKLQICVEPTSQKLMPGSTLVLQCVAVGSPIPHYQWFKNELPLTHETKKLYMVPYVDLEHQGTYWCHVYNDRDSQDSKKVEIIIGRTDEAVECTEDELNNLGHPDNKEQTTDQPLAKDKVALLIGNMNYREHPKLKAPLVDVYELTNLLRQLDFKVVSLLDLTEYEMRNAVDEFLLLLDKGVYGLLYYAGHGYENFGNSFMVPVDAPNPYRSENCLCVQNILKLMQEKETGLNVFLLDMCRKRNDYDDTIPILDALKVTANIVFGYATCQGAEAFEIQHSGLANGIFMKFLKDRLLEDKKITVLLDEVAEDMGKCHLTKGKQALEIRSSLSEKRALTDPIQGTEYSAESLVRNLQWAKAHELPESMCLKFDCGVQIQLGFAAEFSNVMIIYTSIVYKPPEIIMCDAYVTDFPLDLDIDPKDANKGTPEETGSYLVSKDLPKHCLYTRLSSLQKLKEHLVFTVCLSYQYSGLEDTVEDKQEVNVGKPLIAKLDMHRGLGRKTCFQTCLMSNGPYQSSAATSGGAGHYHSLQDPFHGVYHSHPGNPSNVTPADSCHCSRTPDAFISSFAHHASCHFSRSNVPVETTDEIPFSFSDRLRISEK
Briefly: MALT1 biochemical assay. The settings on record: 2 nM enzyme, 50 μM Ac-Leu-Arg-Ser-Arg-AMC substrate. The method, then:
Full-length MALT1 enzyme at 2 nM was assayed in 50 mM HEPES, 100 mM NaCl, 0.9 M NaCitrate, 1 mM EDTA, pH 7.5, with 50 μM Ac-Leu-Arg-Ser-Arg-AMC as substrate. Compound was added in an 11-point concentration series from 100 μM to 1 nM in half-log dilution.
Compounds were distributed in 384 well plates by Echo550, and the assay was run with fluorescence readings at 460 nm, every 2 minutes for 60 minutes.

A further experiment has as its target T2, MALT1 (Homo sapiens, UniProt Q9UDY8).
T2 construct: endogenous in cells; host or cells: Jurkat clone E6-1 (ATCC)
T2 sequence (Q9UDY8 1-824): T1 sequence (Q9UDY8 1-824)
The experiment can be described thus: HOIL1 cleavage assay (in-cell MALT1 protease activity, Jurkat E6-1). It is filed as cell-based. The settings on record: Jurkat E6-1, PMA/Ionomycin-induced cleavage of HOIL1, 60 minutes. How it is done:
In-cell MALT1 protease activity, was measured as inhibition of PMA/lonomycin-induced cleavage of HOIL1. Day 1 0.75×10^6 cells/well were seeded in a 48 well plate. Day 2 cells were stimulated by PMA/lonomycin (1:500 dilution) with addition of vehicle or compound in a 5-point concentration series, 1:3 dilution.

Experiment [1] concerns IL-2 expression in Jurkat (E6-1) cells. Briefly: IL-2 expression assay (down-stream MALT1 activity, Jurkat E6-1). The format is cell-based. The settings on record: Homo sapiens; Jurkat E6-1, PMA/Ionomycin stimulation, 24 hours. How it is done: Down-stream MALT1 activity was measured by PMA/lonomycin-induced expression of IL-2 in Jurkat (E6-1) cells. Compounds were distributed in a 96 well plate, 8-point concentration series, 1:3 dilution. Jurkat clone E6-1, 4×10^4 cells/well, were added, and stimulated by PMA/lonomycin (1:500 dilution) for 24 hours at 37° C. Measurement was performed using a MesoScale Sector S600 with the Human IL-2 Tissue Culture kit according to the manufacturers recommendation.

Structures are written as SMILES.

The values below come from patent publication US20200009135A1, “THERAPEUTIC APPLICATIONS OF MALT1 INHIBITORS” (MEDIVIR AB, priority 2017, published 2020).

For orientation: IC50 means the midpoint of a concentration-inhibition curve. Low readings indicate greater potency, high ones weaker potency. Consider `CO[C@@H](C)c1c(NC(=O)Nc2cnc(-n3cc(CN)cn3)c(Cl)c2)cnc2cc(Cl)nn12` [Example 1, (S)-1-(6-(4-(aminomethyl)-1H-pyrazol-1-yl)-5-chloropyridin-3-yl)-3-(2-chloro-7-(1-methoxyethyl)pyrazolo[1,5-a]pyrimidin-6-yl)urea], for which the IC50 amounted to 37.5 nM on Full-length MALT1 enzyme, 0.04 µM on MALT1 and 0.03 µM in experiment [1].
As for `CO[C@@H](C)c1c(NC(=O)Nc2ccnc(C(F)(F)F)c2)cnc2cc(Cl)nn12` [Example 3, (S)-1-(2-Chloro-7-(1-methoxyethyl)pyrazolo[1,5-a]pyrimidin-6-yl)-3-(2-(trifluoromethyl)pyridin-4-yl)urea], it took 0.02 µM to reach half-maximal inhibition in experiment [1] (IC50).
